Laboratory results taken from paper PMC7519074, “Polar functional group-containing glycolipid CD1d ligands modulate cytokine-biasing responses and prevent experimental colitis” (Scientific Reports, 2020).
In brackets after ≈: the same amount, converted by molar mass. Entries after “also recorded” stand apart in the source; their conditions may differ.

Columns and labels:
mouse splenocytes = assay: Cytokine secretion assay using mouse splenocyte; assay type: cell-based, C57BL/6 mice; parameters: IFN-γ production / IL-4 production / IL-17A production: unit not given here; details: for IFN-γ production / IL-4 production / IL-17A production: 1 nM ligand, 48 h; for IFN-γ production: Fig. S2a; for IL-4 production: Fig. S2b; for IL-17A production: Fig. S2c; for Relative ratio IL-4/IFN-γ of cytokine production compared to α-GalCer / Relative ratio IL-17A/IFN-γ of cytokine production compared to α-GalCer: 1 nM; for Relative ratio IL-4/IFN-γ of cytokine production compared to α-GalCer: Fig. 5a; for Relative ratio IL-17A/IFN-γ of cytokine production compared to α-GalCer: Fig. 5b; for cytokine polarization in words: from relative ratios, Fig. 5
Description: Spleen cell suspensions (from C57BL/6 mice) were prepared in complete medium (RPMI 1,640 media supplemented with 10% FBS and 1% penicillin–streptomycin) and seeded into 96-well plates (6.0 × 10^5 cells/well). Lipid ligands were added, and the mixture were incubated at 37 °C for 48 h. IFN-γ, IL-4 and IL-17A release were measured with an ELISA kit (Affymetrix).

[1] = Metabolic stability, rat liver microsome; assay type: in vitro ADME; details: for half-life: liver microsomes, read-out: metabolic stability (liver microsome, T1/2) rat
mCD1d-Fc fusion protein [2] = biological target: T1, mCD1d-Fc fusion protein (Mus musculus, UniProt P11609); parameters: method as in PMID 27648599; details: previously reported; cited from earlier work
T1 construct: Ig (mouse immunoglobulin fusion partner); purchased BD Biosciences
T1 sequence (P11609 22-305 limits assumed): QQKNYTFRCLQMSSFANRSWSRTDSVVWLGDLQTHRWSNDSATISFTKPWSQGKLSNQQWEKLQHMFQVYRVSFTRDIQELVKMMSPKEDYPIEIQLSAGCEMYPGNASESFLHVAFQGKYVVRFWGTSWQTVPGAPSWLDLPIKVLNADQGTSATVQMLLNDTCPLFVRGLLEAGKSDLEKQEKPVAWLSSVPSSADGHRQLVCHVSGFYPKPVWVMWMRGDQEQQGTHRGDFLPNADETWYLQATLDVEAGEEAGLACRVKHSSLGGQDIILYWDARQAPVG
T1 sequence (P01887 21-119 partner): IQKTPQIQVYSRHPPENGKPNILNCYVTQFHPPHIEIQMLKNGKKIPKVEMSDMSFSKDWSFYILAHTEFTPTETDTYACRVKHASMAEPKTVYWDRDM

DSS-induced colitis [3] = assay: DSS-induced colitis model of ulcerative colitis; assay type: in vivo; details: for DAI scores (disease activity index) versus PBS control / colon length (colon shortening) versus PBS control: 100 μg/kg ip on day 4, 2.0% DSS day 1-7, read on day 8
Description: DSS treatment causes progressive weight loss, diarrhea and colon inflammation with a significant reduction in colon length, which leads to increases in the clinical scores of disease symptoms (DAI: disease activity index). C57BL/6 mice (n = 12 per group) were continuously treated with 2.0% DSS in their drinking water from day 1 to day 7. The mice were injected intraperitoneally with 100 μg/kg of the derivatives or PBS (control) on day 4. On day 8, the DAI scores and colon lengths of the mice administered the derivatives were compared with those of the mice administered PBS (control). […] Colon shortening is a feature of colon inflammation in the DSS-induced model. In the model, the colon length of healthy mice is about 8 cm (DSS (−)), whereas that of mice upon DSS treatment is about 4 cm (DSS + PBS) as shown in Fig. 7b. […] In this study, we selected the intraperitoneal injection as the administration method of lipid ligands, and used DAI scores and colon length to investigate the protective effects of derivatives against colitis. On the other hand, the difference in the administration method of immunomodulators, such as lipid ligands, might have a significant impact on their efficacy[46],[47]. In addition, the cytokine profiles in the colon upon ligand treatment could also provide useful information regarding their efficacy. Further research is currently being conducted into the effects of administration methods on efficacy and the examination of colon cytokine profiles.
The animal experiments using murine DSS model were conducted in accordance with the guidelines of Keio university institutional animal care and use committee. Specific pathogen-free C57BL/6 mice were purchased from Japan Clea (Tokyo, Japan). All mice were housed under specific pathogen-free conditions in microisolator cages in an animal facility, and male mice (7 weeks of age) were used. DSS (dextran sulfate sodium) was added to the water supply provided to the animals at a concentration of 2.0% (wt/vol) for days 1–7. Derivatives 2 and 3 were first dissolved in DMSO at 100 μg/mL and then diluted in PBS solution. The derivatives (100 μg/kg in 200 μL of solution) were injected intraperitoneally on day 4 after the induction of colitis. Control animals received 200 μL of PBS solution containing the same concentration of DMSO. Mice were sacrificed on day 8 after DSS administration. Intestinal tissues were removed and opened longitudinally. The length of the colon was measured after exclusion of cecum. The disease activity index (DAI), defined as stool blood, stool form and weight loss, and the length of the colon were used to analyze the therapeutic benefits of derivatives 2 and 3.

Water solubility = assay type: physicochemical
[4] = Metabolic stability, human liver microsome; assay type: in vitro ADME; details: for half-life: liver microsomes, read-out: metabolic stability (liver microsome, T1/2) human
DSS-induced colitis [5] = system: DSS-induced colitis; parameters: method as in PMID 15674111; details: cited from earlier work
mCD1d-Fc fusion protein [6] = biological target: T1, mCD1d-Fc fusion protein; assay: Antigen presenting cell (APC)-free assay for lipid binding to mCD1d-Fc; IL-2 release by 2E10 NKT hybridoma cells; assay type: cell-based; parameters: unit not given here; details: ligand 100 nM; mean ± SEM; Fig. 3c, d
Description: NKT hybridoma 2E10 cells were cultured in RPMI-1640 (NACALAI TESQUE, INC) supplemented with 10% fetal bovine serum (FBS; Biowest), and 1% penicillin–streptomycin (Gibco).
For this assay, 96-well microplates (Bio-one 96-well cell culture plate, Greiner) were coated with mouse CD1d:Ig Fusion protein (BD Biosciences) (0.25 μg/well) in PBS at 37 °C for 24 h. […] After washing, 2E10 NKT hybridoma cells (2.5 × 10^5 cells/well) were added and cultured at 37 °C for 48 h. IL-2 release was measured with an ELISA kit (Affymetrix).

[7] = Plasma pharmacokinetic profile in mice after ip dosing; assay type: in vivo, C57BL/6J mice; details: male, C57BL/6, mouse, 100 ug/kg, 100 μg/kg ip, mice n = 6
Description: The pharmacokinetic study was approved by The Institutional Animal Care and Use Committee of Ono Pharmaceutical Co., Ltd. and was performed in accordance with the ethics criteria contained in the animal welfare bylaws of the Committee. The pharmacokinetics of 3 were studied following intraperitoneal administration. The 10 μg/mL dosing solution, which contained DMSO/Phosphate buffered saline = 1/9, was administered intraperitoneally to six male C57BL/6 mice (Charles River Laboratories, Japan, Inc.). Blood samples were collected into heparinized syringes at designated times and centrifuged to obtain the plasma samples. The plasma samples were assayed after protein precipitation by acetonitrile/ethanol (70/30, v/v), followed by HPLC/MS/MS analysis. Plasma concentration–time data were analyzed by noncompartmental methods.

[8] = Table S1, dash = below the detection limit (< 5 μM) according to b25

Row | Structure (SMILES) | IFN-γ production (mouse splenocytes) | IL-4 production (mouse splenocytes) | IL-17A production (mouse splenocytes) | Relative ratio IL-4/IFN-γ of cytokine production compared to α-GalCer (mouse splenocytes) | Relative ratio IL-17A/IFN-γ of cytokine production compared to α-GalCer (mouse splenocytes) | cytokine polarization in words (mouse splenocytes) | metabolic stability in words [1] | half-life [1] | cytokine production / agonistic activity relative to α-GalCer, in words (mCD1d-Fc fusion protein [2]) | DAI scores (disease activity index) versus PBS control (DSS-induced colitis [3]) | colon length (colon shortening) versus PBS control (DSS-induced colitis [3]) | solubility (Water solubility; [8]) | half-life [4] | efficacy in the murine DSS model, in words (DSS-induced colitis [5]) | solubility (Water solubility; detection limit 5 μM) | other results
1 | CCCCCCCCCCCCCC[C@@H](O)[C@@H](O)[C@H](CO[C@H]1O[C@H](CO)[C@H](O)[C@H](O)[C@H]1O)NC(=O)CCCCCCCCCCCNC(=O)CCCCCCCNC(=O)CC [compound 2] | 9,467 ± 362 | 593 ± 65 | 5,179 ± 154 | 3.15 ± 0.46 | 2.98 ± 0.03 | relatively less selective cytokine responses | resistant to rat microsomal metabolism | 1.07 h | higher levels of cytokine production relative to that caused by α-GalCer | did not significantly alter the DAI scores | significantly prevented the colon shortening | < 5 µM | < 0.25 h |  |  | mice died by day 8 (DSS-induced colitis [3]; 100 μg/kg ip on day 4, 2.0% DSS day 1-7, n = 12 per group): Two out of twelve
2 | CCCCCCCCCCCCCCCCCCCCCCCC(=O)N[C@@H](COC1OC(CO)C(O)C(O)C1O)[C@H](O)[C@H](O)CCCCC (stereo partly drawn) [OCH] |  |  |  |  |  |  |  |  |  |  |  |  |  | effective in the murine DSS model |  | 
3 | CCCCCCCCCCCCCCCCCCCCCCCCCC(=O)N[C@@H](CO[C@H]1O[C@H](CO)[C@H](O)[C@H](O)[C@H]1O)[C@H](O)[C@H](O)CCCCCCCCCCCCCC [α-GalCer, α-galactosyl ceramide, reference compound] | 12,297 ± 61 | 247 ± 14 | 2,258 ± 242 |  |  |  |  |  |  |  |  | < 5 µM |  | effective in the murine DSS model | < 5 µM | IL-2 production (mCD1d-Fc fusion protein [6]): 274 ± 53
4 | CCCCCCCCCCCCCC[C@@H](O)[C@@H](O)[C@H](CO[C@H]1O[C@H](CO)[C@H](O)[C@H](O)[C@H]1O)NC(=O)CCCCCCCCCCCNC(=O)c1ccccc1 [compound 3] | 514 ± 79 |  | 1651 ± 127 | 10.2 ± 1.6 | 18.0 ± 1.7 | IL-4- and IL-17A-biasing properties | resistant to rat microsomal metabolism | 2.82 h | higher levels of cytokine production relative to that caused by α-GalCer; also recorded: higher agonistic activity than α-GalCer | significant improvement in the DAI scores | significantly prevented the colon shortening |  | < 0.25 h |  | 7.2 µM (≈ 5.62 µg/mL) | Cmax [7]: 92.8 ng/mL; Tmax [7]: 1 h; half-life [7]: 5.2 h; AUC ([7]; ip): 466 ng·h/mL; metabolic stability in words [4]: suboptimal metabolic property for human liver microsome
